From patent US20210330756A1, “Acetylation of Miro1” (University of South Carolina, priority 2020, published 2021)

What was measured:
[1] = tested on: axons of adult mouse DRG neurons; test: Microfluidic devices: exposure limited to axons of DRG neurons; format: cell-based
Excerpt: (§1) To determine if the effect of growth inhibitors on mitochondrial recovery was limited to distal axons, we performed FRAP on more proximal segments of the axon shaft in DRG neurons expressing Mito-GFP. For analyses of recovery, the bleached ROIs were divided into four subregions along the axon length so that we could distinguish anterograde from retrograde transport-driven Mito-GFP recovery. […] Since this effect of MAG-Fc on recovery could derive from either axons or cell body, we cultured dissociated DRGs in microfluiclic devices where we could limit exposure to MAG-Fc and TubA to the axons.
For primary culture of rat DRG neurons, L4-5 DRG were harvested in Hibernate-A medium (BrainBits) and then dissociated using type I collagenase (50 U/ml; Gibco) for 20 min at 37° C. and 5% CO2(Twiss et al., 2000). Dissociated ganglia were cultured in complete medium containing 10% FetalPlex animal serum complex (Gemini), 1% N1 Supplement (Sigma-Aldrich), and 10 μM cytosine-arabinoside (Sigma-Aldrich) on laminin/poly-L-lysine-coated substrates. Mouse neurons were used for cultures in microfluidic devices. For these, all cervical, thoracic, and lumbar DRGs were collected and digested with collagenase (4 mg/ml, Worthington) and dispase (1 mg/ml; Sigma-Aldrich) for 45 min at 37° C. and 5% CO2; these cells were plated in DMEM/F12 and 10% FBS at 37° C. and 5% CO2. […]

[2] = tested on: axon shaft mitochondria of DRG neurons; test: FRAP of Mito-GFP in proximal axon shaft segments of DRG neurons; format: cell-based, rat
Excerpt: as §1
Mito-KR- and Mito-GFP-expressing DRG neurons were used for FRAP analyses at 48-72 h after transfection. To evaluate mitochondrial motility in Mito-KR-expressing neurons, Mito-KR signals were photobleached using continual exposure to an argon laser set at 594 nm for 30 s (100% laser power) The bleached ROI was then monitored for recovery using an argon laser set at 580 nm every 10 s over 16 min (13% laser power). […]
Vesicle trafficking was quantified using differential ImageJ Difference Tracker Plug-in (Andrews et al., 2010). 50-80-μm long unbranched axon segments at approximately the mid-region between growth cone and cell body were analyzed. […] The distance between the growth tip at end of the post-CALI sequence and the pre-CALI baseline was measured using LAS-X software. […]

Compound: CN1CCc2c(c3ccccc3n2Cc2ccc(C(=O)NO)cc2)C1 [TubA, tubastatin]
- effect on MAG-Fc-dependent decrease in distal axon mitochondria ([1]; TubA in axonal compartment): prevented by TubA treatment
- axon retraction and end bulb formation in distal axons after MAG-Fc ([1]; TubA treatment): prevented the axon retraction and end bulb formation
- effect on MAG-Fc's attenuation of axonal Mito-GFP recovery (axon shaft) ([2]; HDAC6 inhibition with TubA): prevented by HDAC6 inhibition
- Mito-GFP recovery pattern along axon shaft ([2]; TubA-treated cultures): more rapid recovery in proximal segments
